Reference: patent publication US20240100065A1, “METHODS FOR TREATING RECEPTOR-INTERACTING PROTEIN KINASE 1-MEDIATED DISEASES” (Genzyme Corporation, priority 2022, published 2024)

Experiment: Safety and tolerability (TEAEs, PCSAs, laboratory tests) in phase 1 study Parts 1a, 1b, 2
Format: in vivo, healthy adult participants (human)
Conditions: for ALT increase: Part 1b 10 mg
Procedure: This single ascending dose (SAD) study consisted of three parts: Part 1a, which is a phase 1, randomized, placebo-controlled, double-blind, sequential ascending single dose study; Part 1b, which is phase 1, open-label, sequential single dose study; and Part 2, which is an ascending 14-day repeated oral dose study.
Part 1a evaluated 4 sequential ascending dose levels of Compound 1 under fasted conditions: 10 mg, 20 mg, 30 mg, and 40 mg, each dose per cohort. Participants were fasted overnight for at least 8 hours before the morning dose and 2 hours after dosing.
Part 1b is an open-label study with two single dose levels of Compound 1, previously tested for safety/tolerability in SAD cohorts of Part 1a, were selected (10 mg and 40 mg) and sequentially administered under a fed condition, each dose per cohort. Participants were fasted overnight for at least 8 hours, and then fed with a light breakfast approximately 30 minutes before Compound 1 dosing. In both Part 1a and 1b, all participants received one single dose of treatment.
Part 2 was a randomized, double-blind, placebo-controlled study that evaluated 14-day multiple ascending oral doses of Compound 1 once daily (OD) or twice daily (BID) regimen under fasted conditions: 10 mg QD, 20 mg QD, 15 mg BID, and 20 mg BID. Participants fasted overnight for at least 8 hours before the morning dose and 2 hours after dosing on Day 1 and Day 14. All other morning doses were administered after an overnight fast and approximately 30 minutes before a breakfast snack. Sentinel dosing approach was followed where two of ten participants in each cohort were dosed the first day (n=1, Compound; n=1, placebo) in advance of the full cohort. The remaining 8 participants from each cohort were randomized to receive either Compound or placebo (randomized 7:1) on the following days with at least 48-hour interval from dosing of the sentinel participants, allowing a safety evaluation at the predicted steady state.
Safety and tolerability were assessed by physical examination, neurological examination, monitoring adverse events (AEs) and potentially clinically significant abnormalities (PCSAs) in clinical laboratory tests (hematology, clinical chemistry, and urinalysis), vital signs (body temperature, blood pressure and heart rate), and ECG parameters (heart rate, RR, PR, QRS, QT, QTcF, QTcB intervals) measured in the standard 12-lead ECG or ECGs extracted from 24-hour Holter ECG data.
Safety population included all participants who received at least one dose of study intervention (Compound 1 or placebo). All safety assessments (AEs, laboratory parameters, vital signs) were based on the review of individual values and were summarized using descriptive statistics. Safety analysis was focused on treatment-emergent period, defined as the time from the first investigational medicinal product (IMP) administration up to the end of study visit (included). AEs were coded according to the Medical Dictionary for Regulatory Activities (MedDRA, version 23.1 in Part 1a and Part 1b; version 24 in Part 2). Severity was graded from Grade 1 to 4 according to the Food and Drug Administration (FDA) Guidance for Industry. Number (%) of participants experiencing TEAEs and potentially clinically significant abnormality (PCSAs) in clinical chemistry, vital signs, and ECGs were summarized by dose level group.

CC(C)(C(=O)N1CCOc2c(C#N)cncc2C1)C(F)F [Compound 1, 4-(3,3-difluoro-2,2-dimethyl-propanoyl)-3,5-dihydro-2H-pyrido[3,4-f] [1,4]oxazepine-9-carbonitrile]
TEAE Eye disorders, participants (Part 1a single 40 mg fasted): 0 n | TEAE Fatigue, participants (Part 1a single 40 mg fasted): 0 n | TEAE General disorders and administration site conditions, participants (Part 1a single 40 mg fasted): 1 n | TEAE Headache, participants (Part 1a single 40 mg fasted): 0 n | TEAE Investigations, participants (Part 1a single 40 mg fasted): 0 n | TEAE Keratitis, participants (Part 1a single 40 mg fasted): 0 n | TEAE Medical device site dermatitis, participants (Part 1a single 40 mg fasted): 0 n | TEAE Musculoskeletal and connective tissue disorders, participants (Part 1a single 40 mg fasted): 1 n | TEAE Myalgia, participants (Part 1a single 40 mg fasted): 1 (16.7) n | TEAE Nervous system disorders, participants (Part 1a single 40 mg fasted): 1 n | TEAE Presyncope, participants (Part 1a single 40 mg fasted): 0 n | TEAE Skin and subcutaneous tissue disorders, participants (Part 1a single 40 mg fasted): 1 n | TEAE Skin irritation, participants (Part 1a single 40 mg fasted): 0 n | TEAE Tachycardia, participants (Part 1a single 40 mg fasted): 0 n | TEAE Thrombophlebitis, participants (Part 1a single 40 mg fasted): 0 n | TEAE Vascular disorders, participants (Part 1a single 40 mg fasted): 0 n | TEAE Ventricular extrasystoles, participants (Part 1a single 40 mg fasted): 1 n | TEAE Vessel puncture site hypoaesthesia, participants (Part 1a single 40 mg fasted): 1 n | TEAE Vessel puncture site pain, participants (Part 1a single 40 mg fasted): 1 n | PCSAs (hematology, clinical chemistry, vital signs, ECG), relevance (Part 1a, all Compound 1 groups): not clinically relevant | Participants with at least one TEAE (Part 1a, all Compound 1 groups, out of 24): 9 participants | SAEs or AESIs (Part 1a, single 10-40 mg fasted): no SAEs or AESIs | ALT increase (one participant, Day 2): 1.5 fold ULN | ALT increase (one participant, Day 7 (end-of-study visit)): 2.4 fold ULN | Participants with at least one TEAE (Part 1b overall, out of 12): 10 participants | Any Grade ≥3 TEAE, participants (Part 1b single 10 mg fed): 0 n | Any TEAE, participants (Part 1b single 10 mg fed): 4 n | Any treatment-emergent AESI, participants (Part 1b single 10 mg fed): 1 n | Any treatment-emergent SAE, participants (Part 1b single 10 mg fed): 0 n | TEAE Alanine aminotransferase increased, participants (Part 1b single 10 mg fed): 1 n | TEAE Back pain, participants (Part 1b single 10 mg fed): 1 n | TEAE Cerebrospinal fluid leakage, participants (Part 1b single 10 mg fed): 1 n | TEAE Coccydynia, participants (Part 1b single 10 mg fed): 0 n | TEAE Constipation, participants (Part 1b single 10 mg fed): 0 n | TEAE Dizziness, participants (Part 1b single 10 mg fed): 0 n | TEAE Gastrointestinal disorders, participants (Part 1b single 10 mg fed): 1 n | TEAE Headache, participants (Part 1b single 10 mg fed): 3 n | TEAE Investigations, participants (Part 1b single 10 mg fed): 1 n | TEAE Musculoskeletal and connective tissue disorders, participants (Part 1b single 10 mg fed): 1 n | TEAE Nausea, participants (Part 1b single 10 mg fed): 1 n | TEAE Nervous system disorders, participants (Part 1b single 10 mg fed): 4 n | TEAE Polyuria, participants (Part 1b single 10 mg fed): 0 n | TEAE Radiculopathy, participants (Part 1b single 10 mg fed): 0 n | TEAE Renal and urinary disorders, participants (Part 1b single 10 mg fed): 0 n | TEAE Vomiting, participants (Part 1b single 10 mg fed): 1 n | Any Grade ≥3 TEAE, participants (Part 1b single 40 mg fed): 1 n | Any TEAE, participants (Part 1b single 40 mg fed): 6 n | Any treatment-emergent AESI, participants (Part 1b single 40 mg fed): 0 n | Any treatment-emergent SAE, participants (Part 1b single 40 mg fed): 1 n | TEAE Alanine aminotransferase increased, participants (Part 1b single 40 mg fed): 0 n | TEAE Back pain, participants (Part 1b single 40 mg fed): 2 n | TEAE Cerebrospinal fluid leakage, participants (Part 1b single 40 mg fed): 3 (50.0) n | TEAE Coccydynia, participants (Part 1b single 40 mg fed): 1 n | TEAE Constipation, participants (Part 1b single 40 mg fed): 1 n | TEAE Dizziness, participants (Part 1b single 40 mg fed): 1 n | TEAE Gastrointestinal disorders, participants (Part 1b single 40 mg fed): 2 n | TEAE Headache, participants (Part 1b single 40 mg fed): 4 n | TEAE Investigations, participants (Part 1b single 40 mg fed): 0 n | TEAE Musculoskeletal and connective tissue disorders, participants (Part 1b single 40 mg fed): 2 n | TEAE Nausea, participants (Part 1b single 40 mg fed): 1 n | TEAE Nervous system disorders, participants (Part 1b single 40 mg fed): 5 n | TEAE Polyuria, participants (Part 1b single 40 mg fed): 1 n | TEAE Radiculopathy, participants (Part 1b single 40 mg fed): 1 n | TEAE Renal and urinary disorders, participants (Part 1b single 40 mg fed): 1 n | TEAE Vomiting, participants (Part 1b single 40 mg fed): 1 n | PCSAs (vital signs, ECG), relevance (Part 1b, all Compound 1 groups): not clinically relevant | Any Grade ≥3 TEAE, participants (Part 2 10 mg QD 14 days): 0 n | Any TEAE, participants (Part 2 10 mg QD 14 days): 4 n | Any treatment-emergent AESI, participants (Part 2 10 mg QD 14 days): 0 n | Any treatment-emergent SAE, participants (Part 2 10 mg QD 14 days): 0 n | TEAE Nervous system disorders, participants (Part 2 10 mg QD, out of 8): 2 participants | Any Grade ≥3 TEAE, participants (Part 2 15 mg BID 14 days): 0 n | Any TEAE, participants (Part 2 15 mg BID 14 days): 6 n | Any treatment-emergent AESI, participants (Part 2 15 mg BID 14 days): 1 n | Any treatment-emergent SAE, participants (Part 2 15 mg BID 14 days): 0 n | ALT increase (AESI) (Part 2 15 mg BID, one participant, Day 9): 2.29 ULN | ALT increase (AESI), highest (Part 2 15 mg BID, one participant, Day 15, 24 hours post last dosing): 2.71 ULN | TEAE Nervous system disorders, participants (Part 2 15 mg BID, out of 8): 1 participants | Any Grade ≥3 TEAE, participants (Part 2 20 mg BID 14 days): 0 n | Any TEAE, participants (Part 2 20 mg BID 14 days): 4 n | Any treatment-emergent AESI, participants (Part 2 20 mg BID 14 days): 0 n | Any treatment-emergent SAE, participants (Part 2 20 mg BID 14 days): 0 n | TEAE Nervous system disorders, participants (Part 2 20 mg BID, out of 8): 2 participants | Any Grade ≥3 TEAE, participants (Part 2 20 mg QD 14 days): 0 n | Any TEAE, participants (Part 2 20 mg QD 14 days): 3 n | Any treatment-emergent AESI, participants (Part 2 20 mg QD 14 days): 0 n | Any treatment-emergent SAE, participants (Part 2 20 mg QD 14 days): 0 n | TEAE Nervous system disorders, participants (Part 2 20 mg QD, out of 8): 1 participants | SAE and severe TEAE (Grade ≥3) (Part 2, 14-day repeated doses): no serious adverse event (SAE) and no severe treatment-emergent adverse event | PCSAs for vital signs and ECG parameters, relevance (Part 2, all groups): not clinically meaningful | Safety and tolerability, overall (single dose up to 40 mg fasted and fed, up to 20 mg BID for 14 days): safe and well tolerated
